Assay results as given in patent publication US20080254017A1, “Methods and compositions for treating symptomes of diseases related to imbalance of essential fatty acids” (priority 2006, published 2008).
Read-outs that look alike come from different tables or passages of the source.

Experiments:
[1] = L-Glutathione capsules, stomach acid; cited from earlier work
[2] = test system: subjects with autistic spectrum disorder; type: in vivo
From the text: The systemic nature of Autistic Spectrum Disorder (ASD) and the pervasive developmental delay (PDD) that may accompany it has led the inventor of the invention to view the complexity of these presentations by addressing them from a cell membrane perspective. Autistic spectrum disorder is a complex neurodevelopmental disorder, which has been investigated under an open clinical study rather than randomized, placebo, controlled and double blinded studies due to the constellation of symptoms in autistic spectrum disorder and multiple variables in regard to the oral and IV intervention. Each subject served as his or her own control for several reasons, 1) control pediatric subjects are difficult to obtain due to the use of intravenous therapy, 2) compliance in regard to a restricted carbohydrate diet and oral intake of supplements is limited in controls, and 3) matching two subjects with the same diagnosis, gender, age, development, metabolism and presentation is unrealistic in regard to autism and PDD. Presently there are no biological markers that exist to identify autistic spectrum disorder in addition to speculation that multiple, variable susceptibility genes, epigenetic effects, and environmental factors complicate the disorder we term autism.
The case studies represented below present the result of the treatment regimen on 300 subjects studied. Phospholipid re-modeling of these subjects were stimulated by supplying oral or IV phospholipids, principally PC, as well as balanced essential fatty acids and catalysts via nutritional and phamaneutical interventions.
A butterfly catheter with a 23-gauge needle was inserted into a vein of the antecubital region of one of the subjects' arms. A syringe containing the PC (phosphatidylcholine) composition in about 5 to about 10 cc volume was connected to the catheter by a flexible tube. A volume of blood equal to the total volume of the PC composition was drawn into the syringe and the syringe was gently agitated to mix the blood and PC composition. The blood/PC composition mixture was then infused (or “pushed”) as a lipid exchange into the subject over a period of two to three minutes.
A butterfly catheter with a 23-gauge needle was inserted into a vein of the antecubital region of one of the subjects' arms. The PC composition was infused first followed by a pre-prepared syringe containing about 2 mg (0.2 cc) to about 5 mg (0.5 cc) of Leucovorin over the period of 2-3 minutes.
A butterfly catheter with a 23-gauge needle was inserted into a vein of the antecubital region of one of the subjects' arms. The PC and Leucovorin compositions were infused first followed by a pre-prepared syringe containing about 1.5 to 6 cc of glutathione generally pre-mixed with an equal portion of sterile water (not saline). The composition containing glutathione was followed the IV PC with a pre-prepared syringe of glutathione using the same needle. This procedure avoids re-sticking the patient by infusing first the PC, then the Leucovorin and then the glutathione using the same butterfly catheter with a flexible tube infused (or “pushed”) into the subject over a period of two to five minutes.

[3] = cited from earlier work
[4] = IV bolus doses of 7 grams, 14 grams and 21 grams; cited from earlier work
[5] = test system: mouse model of Bulbar ALS; details: oral administration; cited from earlier work

N[C@@H](CCC(=O)N[C@@H](CS)C(=O)NCC(=O)O)C(=O)O [Glutathione, N—(N-L-gamma-glutamyl-L-cysteinyl) glycine]
stability when taken orally [1]: very unstable and is destroyed by the stomach acid before it can be absorbed

O=C(O)[C@@H](S)[C@@H](S)C(=O)O [DMSA, meso-2,3-dimercaptosuccinic acid]
adverse outcome ([2]; Case Study Seven, 13 months of oral dosing by another physician): increased left side weakness

Phosphatidylcholine
clinical response ([2]; Case Study Five, 2 grams then 3 grams on consecutive weeks dripped over 3 hours): increased awareness/communication | clinical response ([2]; Case Study Seven, IV 500 mg two to three times weekly, after 6 weeks): dramatic improvement in response to others and the world around them | clinical response ([2]; Case Study Seven, IV lipid exchange 250 mg followed by 0.3 cc leucovorin and 1200 mg GSH, once weekly): positive responsive | clinical response ([2]; Case Study Seven, bolus dosing): increased language and awareness | clinical response ([2]; Case Study Six, IV 500 mg twice weekly, after 6 weeks): improvement in fatigue, stable mood, return of focus, improvement in memory, clearance of orange color on palms/soles, less headaches, improved learning | clinical response ([2]; Case Study Six, IV lipid exchange 250 mg once weekly with supplementation and diet): responsive | clinical response ([2]; Case Study Six, bolus 1.5 grams in D5W dripped over 2 hours followed by glutathione): improved cognition, increased circulation, improved eye contact and more demonstrative, loving behavior | tolerability ([2]; Case Study Six, bolus 3 grams dripped over 4 hours): well tolerated | oral absorption ([3]; taken orally with meals): up to 90 % per 24 hrs | time over which blood levels peak ([3]; taken orally): 8 to 12 h | side effects [4]: no side effects were observed

CCCC(=O)[O-].[Na+] [sodium butyrate]
acetylation of nuclear histone in neural tissues [5]: increased acetylation of nuclear histone in neural tissues | neurological phenotypes [5]: successfully ameliorated neurological phenotypes
